US20100168133A1, “USE OF SUBSTITUTED QUINOLINE DERIVATIVES FOR THE TREATMENT OF DRUG RESISTANT MYCOBACTERIAL DISEASES” (priority 2004, published 2010)
Converted amounts (≈) assume the structure as drawn.

Tested on: 73 M. tuberculosis strains (41 fully susceptible, 32 MDR)
Assay: microbe, parasite or virus in culture
Format: cell-based

SMILES: COc1nc2ccc(Br)cc2cc1[C@@H](c1ccccc1)[C@@](O)(CCN(C)C)c1cccc2ccccc12 [Compound 12, (αS,βR)-6-bromo-α-[2-(dimethylamino)ethyl]-2-methoxy-α-1-naphthalenyl-β-phenyl-3-quinolineethanol]
- difference in MIC between fully susceptible and MDR M. tuberculosis strains: No difference in MIC
- MIC (Mycobacterium tuberculosis, 504 h, the majority of the 73 strains, agar plates, 36° C., 3 weeks): 0.032 µg/mL (≈ 0.0576 µM)
- concentrations at which no growth was seen (all the tested strains (73), agar plates, 36° C., 3 weeks): higher than 0.064 mg/L
